Results: patent publication US20240238310A1, “MODULATION OF SEX STEROID HORMONE PRODUCTION AND ACTIVITY FOR TREATING AND PREVENTING HERNIAS” (Northwestern University, priority 2020, published 2024)
“Also recorded” adds a separate entry of the source.

Key:
[1] = system: LAMT primary fibroblasts from Arom^hum mice; experiment: mRNA levels of estrogen-responsive and fibrotic genes in LAMT primary fibroblasts after E2 antagonist treatment; assay type: cell-based, mouse; conditions: MPP, pretreated 2 hours before addition of E2 (10 nM)
Protocol: FIG. 10. mRNA levels of estrogen-responsive genes [Pgr (A, E) and Greb1 (B, F)] and fibrotic genes [Spon2 (C, G), Kiss1 (D), and Eln (H)] in LAMT primary fibroblasts from Arom^hum mice after treatment with 100 nM ICI 182,780 (ICI) or […] MPP in the presence or absence of E2 (10 nM). Cells were pretreated with ICI 182,780 or MPP for 2 hours before the addition of E2. Veh, vehicle. *P<0.05, **P<0.01. GAPDH mRNA levels served as controls.
Experiment 1a2: Does the general E2 antagonist fulvestrant, which downregulates and blocks ER, or ERα-selective E2 antagonist MPP prevent, arrest or reverse LAMT muscle fibrosis, atrophy and inguinal hernias in male Arom^hum mice? […] Here, we will define whether the effects of E2 on hernia formation in LAMT is mediated via ERα in vivo. We will treat Arom^hum or WT mice with vehicle, fulvestrant (ICI 182,780), or MPP. […] Circulating and muscle tissue E2 levels will be measured using LC-MS^2. To validate the effects of each treatment, protein expression of ERα and E2/ERα target genes (Ccnd1, Pgr, and Greb1), and cell proliferation markers (Ki67 and PCNA) will be determined by IHC and immunoblotting. Fibrotic-related genes (Kiss1, Ren1, Emb, Timp1, Spon2, and Eln), the ECM marker Col1a1, and the myocyte marker Myh will be assessed using qPCR and IHC in LAMT after fulvestrant, MPP, and/or letrozole treatment. […]

[2] = system: Arom^hum mice; experiment: Reversal of established scrotal hernias and LAMT fibrosis/atrophy in Arom^hum mice; assay type: in vivo, mouse; conditions: for time required to reverse large hernias, compared to fulvestrant treatment / reversal of large scrotal hernia: Arom^hum mice with large hernias
Protocol: FIG. 16. […] Arom^hum mice with small to moderate size of hernias were treated with placebo or letrozole for 12 weeks. (A) Schematic diagram depicts the schedule of drug administration. (B) The area of scrotal hernia in Arom^hum mice. (C) Representative photomicrographs of Masson's trichrome-stained LAMT sections of WT and Arom^hum mice. Quantification of the percentage of connective tissue or fibrotic area (D) or myofiber area (E) in WT and Arom^hummice. 10 representative high-power fields were analyzed in each tissue. One-way ANOVA with Tukey's multiple comparison test, **p<0.01, ***p<0.001. Scale bars, […]. n=5 mice per group.
FIG. 17. […] Arom^hum mice with small to moderate size of hernias were treated with placebo or letrozole for 3 weeks. (A) Schematic diagram depicts the schedule of drug administration. (B) The area of scrotal hernia in Arom^hum mice.
FIG. 18. E2/ER antagonist fulvestrant reverses the large size of scrotal hernias and rescues LAMT fibrosis and myocyte atrophy in Arom^hum mice. Arom^hum mice with large size of hernias were treated with placebo or fulvestrant for 12 weeks. (A) Schematic diagram depicts the schedule of drug administration. (B) The area of scrotal hernia in Arom^hum mice. (C) Representative photomicrographs of Masson's trichrome-stained LAMT sections of WT and Arom^hum mice. Quantification of the percentage of connective tissue or fibrotic area (D) in WT and Arom^hum mice. 10 representative high-power fields were analyzed in each tissue. (E) Hydroxyproline content in LAMT of WT and Arom^hum mice treated with fulvestrant. One-way ANOVA with Tukey's multiple comparison test, ***p<0.001, ****p<0.0001. n=5 mice per group.
(§1) FIG. 19. Aromatase inhibitor letrozole reverses the large size of scrotal hernias in Arom^hum mice. Arom^hum mice with large size of hernias were treated with placebo or letrozole for 12 weeks. (A) Schematic diagram depicts the schedule of drug administration. (B) The area of scrotal hernia in Arom^hum mice.
as §1, with “20. E2/ER antagonist raloxifene” for “19. Aromatase inhibitor letrozole”, “raloxifene” for “letrozole”, “3” for “12”
We treated Arom^hum mice with letrozole for 12 weeks. […] Raloxifene is a selective estrogen receptor modulator (SERM) and is currently used to prevent and treat osteoporosis in postmenopausal women.
We treated Arom^hum mice with fulvestrant for 12 weeks when the hernia area was over 200 mm^2. Large hernias were completely disappeared after 3- to 4-week of fulvestrant administration. […] We measured the total amount of collagen (largely type I and III), a major component of ECM, through measuring the content of hydroxyproline(1).

[3] = system: Arom^hum mice; conditions: 3 weeks old mice; high-dose DHT via injection for 53 days; vs vehicle; p<0.005
Protocol: 3-week-old mice were treated with vehicle (Veh) or DHT for 53 days.

[4] = system: LAMT E2; experiment: Serum and LAMT estradiol (E2) by LC-MS^2 after letrozole treatment; assay type: in vivo, mouse; conditions: Arom^hum mice, letrozole 10 μg daily SC pellets starting at week 3
Protocol: FIG. 4. (A) Serum estradiol (E2) and (B) LAMT E2 were measured by liquid chromatography-tandem mass spectrometry (LC-MS^2) assay after letrozole (let) treatment (n=10/group). *p<0.05. **p<0.01. Veh, vehicle.
LAMT estrogen levels are increased in Arom^hum mice. Arom^hum mice recapitulate the primary aspects of aromatase expression in men in that most peripheral (extragonadal) tissues, such as skeletal muscle and adipose tissue, express aromatase primarily using the distal promoter 1.4 and, to a lesser extent, the proximal promoter II (FIG. 3)^32. […] Local E2 levels in LAMT, however, are strikingly higher in Arom^hum mice than in WT mice (FIG. 4B).
Increased LAMT estrogen levels are associated with LAMT fibrosis, myocyte atrophy, and inguinal hernia development; aromatase inhibitor prevents hernia formation in Arom^hum mice. […]
Experiment 1a1: Does aromatase inhibition arrest or reverse LAMT fibrosis, atrophy, and hernia in male Arom^hum mice? […] Hernia development will be monitored by visual inspection twice a week for 12 weeks after letrozole administration and will be reported as hernia incidence using Kaplan-Meier curve analysis. The length and width of the observed hernias will be measured to calculate the surface area (length×width). […] Circulating and tissue (LAMT and UAMT) E2 levels will be measured at the IIT Research Institute by Dr. Miguel Muzzio (see letter) using LC-MS^2. […]

[5] = system: Arom^hum mice; experiment: Prevention of inguinal hernia, LAMT fibrosis and atrophy in Arom^hum mice (treatment started before hernia formation); assay type: in vivo, mouse
Excerpt: Increased LAMT estrogen levels are associated with LAMT fibrosis, myocyte atrophy, and inguinal hernia development; aromatase inhibitor prevents hernia formation in Arom^hum mice. […] None of the WT littermates (n=32) developed hernia.
In the mouse, the scrotum is connected to the peritoneal cavity with a narrow funicular (or inguinal) canal, whose walls are composed of LAMT. Structurally normal LAMT is essential to maintain the tone of this canal and prevents herniation of bowel. LAMT is the critical site affected by E2 excess (FIGS. 2, 5, 6). As in many other tissues, stromal cells intimately interact with parenchymal cells (myocytes) in UAMT and LAMT (FIG. 6). […] Administration of the aromatase inhibitor letrozole started at 3 weeks of age for 12 weeks prevented LAMT atrophy, fibrosis and herniation in all (10 out of 10) treated Arom^hum mice (FIG. 6B).
Experiment 1a1: Does aromatase inhibition arrest or reverse LAMT fibrosis, atrophy, and hernia in male Arom^hum mice? […] The hernias will be classified as mild, early moderate, late moderate and severe if the bulging area through muscle tissue is <100 mm^2 (˜4 weeks), 100-150 mm^2 (˜6 weeks), 150-200 mm^2 (˜8 weeks), or >200 mm^2 (˜10 weeks), respectively. First, we will treat Arom^hum mice showing mild hernias with letrozole (SC 10 μg/day release pellet) or vehicle starting at 4 weeks of age for 12 weeks^63. We will assess whether muscle fibrosis, atrophy, and hernia can be arrested or reversed in mildly (<100 mm^2) affected animals. If early letrozole treatment can arrest mild muscle fibrosis, we will delay the initiation of treatment to 6, 8, or 10 weeks of age to determine whether letrozole can arrest or reverse the growth of the early moderate (6 weeks), late moderate (8 weeks) or severe hernia (10 weeks). Hernia development will be monitored by visual inspection twice a week for 12 weeks after letrozole administration and will be reported as hernia incidence using Kaplan-Meier curve analysis. The length and width of the observed hernias will be measured to calculate the surface area (length×width). After completion of the treatment, the mice will be dissected, and LAMT, UAMT (control), and serum will be collected. One hundred mg of frozen muscle tissue will be obtained to measure tissue estrogen levels. Circulating and tissue (LAMT and UAMT) E2 levels will be measured at the IIT Research Institute by Dr. Miguel Muzzio (see letter) using LC-MS^2. We will use immunoblotting and IHC to determine ERα expression in LAMT and UAMT.
This finding was published in PNAS in Oct., 2018. […] We treated Arom^hum mice with fulvestrant for 12 weeks starting at the age of 4 weeks (before hernia formation). As expected, placebo-treated Arom^hum mice developed scrotal hernias.

[6] = system: LAMT Arom^Hum fibroblasts; experiment: R1881 treatment of primary fibroblasts, western blot (AR, PCNA); assay type: cell-based, mouse; conditions: for increase in PCNA levels (densitometry normalized to GAPDH): preliminary data
Protocol: (§2) Primary fibroblasts were isolated from LAMT from WT and Arom^Hum mice (n=5/genotype). Cells were treated for 24 hours with increasing doses (0.001, 0.01, 0.1, 1, 5, 10, and 100 nM) of R1881, a synthetic androgen, and compared to untreated cells by western blot.

[7] = system: LAMT WT fibroblasts; experiment: as above; assay type: cell-based, mouse; conditions: for increase in PCNA levels (densitometry normalized to GAPDH): preliminary data
Protocol: as §2

[8] = Arom^hum mice with small to moderate hernias, letrozole for 12 weeks
[9] = R1881 0.001-100 nM, 24 hours, western blot

Compound: Cc1c(-c2ccc(O)cc2)nn(-c2ccc(O)cc2)c1-c1ccc(OCCN2CCCCC2)cc1 [MPP, Methyl-Piperidino-Pyrazole]
- E2-induced expression of estrogen-responsive genes (Pgr and Greb1) and fibrotic genes (Spon2, Kiss1, Eln) [1]: significantly decreased E2-induced expression of estrogen-responsive genes (Pgr and Greb1) and fibrotic genes (Spon2, Kiss1 and, Eln)

Compound: O=C(c1ccc(OCCN2CCCCC2)cc1)c1c(-c2ccc(O)cc2)sc2cc(O)ccc12 [raloxifene]
- time required to reverse large hernias, compared to fulvestrant treatment [2]: require a longer time to reverse large hernias as compared to fulvestrant treatment
- reversal of large scrotal hernia ([2]; raloxifene for 3 weeks, FIG. 20): reverses large scrotal hernia
- reversal of small to large hernias ([2]; Arom^hum mice, 3-week raloxifene treatment, FIGS. 17 and 20): capable to reverse small to large hernias
- reversal of mild to moderate size of hernia ([2]; Arom^hum mice, raloxifene for 21 days, FIG. 17): can also reverse mild to moderate size of hernia; also recorded: reverses the small to moderate size of scrotal hernias

Compound: C[C@]12CCC(=O)C[C@@H]1CC[C@@H]1[C@@H]2CC[C@]2(C)[C@@H](O)CC[C@@H]12 [DHT, dihydrotestosterone]
- hernia volume [3]: significantly decreased

Compound: N#Cc1ccc(C(c2ccc(C#N)cc2)n2cncn2)cc1 [letrozole]
- LAMT E2 levels [4]: restored LAMT E2 levels similar to WT LAMT levels
- time required to reverse large hernias, compared to fulvestrant treatment [2]: require a longer time to reverse large hernias as compared to fulvestrant treatment
- reversal of large scrotal hernia ([2]; letrozole for 12 weeks, FIG. 19): reverses large scrotal hernia
- muscle fibrosis [2, 8]: reduction in muscle fibrosis
- myocyte size [2, 8]: restoration of myocyte size
- reversal of mild to moderate size of hernia (150-200 mm^2) ([2]; Arom^hum mice, letrozole for 12 weeks, FIG. 16): can reverse mild to moderate size of hernia
- hernia development ([5]; Arom^hum male mice, letrozole 10 μg daily via subcutaneous slow-release pellets starting at week 3, 12 weeks): entirely prevented LAMT fibrosis or inguinal hernia development in all animals; also recorded: prevented hernia development in all Arom^hum mice; also recorded: prevents abdominal bulging, LAMT stromal fibrosis, myocyte atrophy, and inguinal hernias in three lines of Arom^hum mice; also recorded: completely prevented the formation of inguinal hernias
- ECM content in LAMT ([5]; Arom^hum mice): significantly decreased
- development of LAMT fibrosis (fibrotic area, Masson's trichrome) ([5]; Arom^hum mice, 4-week-old mice treated for 12 weeks, FIGS. 15C and D): completely prevented with letrozole treatment
- stromal cell proliferative activity (Ki67-positive stromal cells) in LAMT ([5]; Arom^hum mice, FIG. 7E): significantly decreased stromal cell proliferative activity
- LAMT atrophy and fibrosis (Masson's trichrome staining) ([5]; Arom^hum mice, letrozole, FIG. 6B): prevented LAMT atrophy and fibrosis
- treated mice in which LAMT atrophy, fibrosis and herniation were prevented ([5]; Arom^hum mice, started at 3 weeks of age for 12 weeks): 10 out of 10

Compound: C[C@]1(O)CC[C@H]2[C@@H]3CCC4=CC(=O)CCC4=C3C=C[C@@]21C [R1881, (17b)-17-Hydroxy-17-methyl-estra-4,9,11-trien-3-one]
- increase in PCNA levels (densitometry normalized to GAPDH) ([6]; 0.001 nM R1881, 24 hours): 20%
- increase in PCNA levels (densitometry normalized to GAPDH) ([6]; 0.01 nM R1881, 24 hours): 30%
- decrease in PCNA levels ([6]; 10 nM R1881, 24 hours): 40%
- decrease in PCNA levels ([6]; 100 nM R1881, 24 hours): 30%
- AR levels [6, 9]: increased AR levels in a dose-dependent manner
- increase in PCNA levels (densitometry normalized to GAPDH) ([7]; 0.001 nM R1881, 24 hours): 80%
- increase in PCNA levels (densitometry normalized to GAPDH) ([7]; 0.01 nM R1881, 24 hours): 60%
- decrease in PCNA levels ([7]; 100 nM R1881, 24 hours): 25%
- AR levels [7, 9]: increased AR levels in a dose-dependent manner
